Tests used:
[1] = Compound tested for the inhibition of chitin synthase using Saccharomyces cerevisiae cells (X2180 strain)
Saccharomyces cerevisiae = experiment: Inhibitory activity tested against Saccharomyces cerevisiae at 256 ug/mL concentration; type: functional
Cryptococcus neoformans = experiment: Inhibitory activity tested against Cryptococcus neoformans at 256 ug/mL concentration; type: functional
Candida albicans = experiment: Inhibitory activity tested against Candida albicans at 256 ug/mL concentration; type: functional
Aspergillus fumigatus = experiment: Inhibitory activity tested against Aspergillus fumigatus at 256 ug/mL concentration; type: functional

Structure (SMILES) | IC50 [1] [µM] | Ki [1] [µM] | other results
O=C(CC(=O)OC[C@H]1OC(n2ccc(=O)[nH]c2=O)[C@H](O)[C@@H]1O)OCc1ccc(O)cn1 (stereo partly specified) | 2800 | – | –
O=C(NC[C@H]1OC(n2ccc(=O)[nH]c2=O)[C@H](O)[C@@H]1O)[C@H](O)[C@@H](O)C(=O)OCc1ccc(O)cn1 (stereo partly specified) | 3200 | – | –
O=c1ccn([C@@H]2O[C@H](CO[C@@H]3O[C@@H](CO)[C@@H](O)[C@H](OCc4ccc5ccccc5n4)[C@@H]3O)[C@@H](O)[C@H]2O)c(=O)[nH]1 | 800 | 250 | –
C[C@@H]([C@H](N)C(=O)N[C@H](C(=O)O)[C@H]1O[C@@H](n2ccc(=O)[nH]c2=O)[C@H](O)[C@@H]1O)[C@H](O)c1ccc(O)cn1 [NIKKOMYCIN] | 0.34 | – | –
C[C@@H]([C@H](N)C(=O)N[C@H](C(=O)O)[C@H]1O[C@@H](n2ccc(=O)[nH]c2=O)[C@H](O)[C@@H]1O)[C@H](O)c1ccc(O)cn1 (stereo in doubt) [NIKKOMYCIN] | 0.5 | 0.34 | –

More lines, main results first:

IC50 [1] [µM] | Structure (SMILES) | Ki [1] [µM] | other results
2000 | O=C(NC[C@@H]1OC(n2ccc(=O)[nH]c2=O)[C@H](O)[C@@H]1O)[C@H](O)[C@@H](O)C(=O)OCc1ccc2ccccc2n1 (stereo partly specified) | 800 | –
10800 | COCOc1ccc(COC(=O)CC(=O)OC[C@H]2OC(n3ccc(=O)[nH]c3=O)[C@H](O)[C@@H]2O)nc1 (stereo partly specified) | – | –
2000 | O=c1ccn([C@@H]2O[C@H](CO[C@@H]3O[C@@H](CO)[C@@H](OCc4ccc5ccccc5n4)[C@H](O)[C@@H]3O)[C@@H](O)[C@H]2O)c(=O)[nH]1 | – | –
3200 | O=c1ccn([C@@H]2O[C@H](CO[C@@H]3O[C@@H](COCc4ccc5ccccc5n4)[C@@H](O)[C@H](O)[C@@H]3O)[C@@H](O)[C@H]2O)c(=O)[nH]1 | – | inhibition (Saccharomyces cerevisiae): 30%; inhibition at 256 µg/mL (Cryptococcus neoformans): 80%; inhibition at 256 µg/mL (Candida albicans): 30%; inhibition at 256 µg/mL (Aspergillus fumigatus): 30%

From ChEMBL document CHEMBL1136384, “Design, synthesis and biological evaluation of hetaryl-nucleoside derivatives as inhibitors of chitin synthase” (Bioorg Med Chem Lett, 2003)
